Holding throughout (test): DTP human tumour cell line panel, 48 h
In experiment [1] the test system is LOX IMVI melanoma.
Experiment [2] has as its system A498 renal.
Experiment [3] deals with MOLT-4 leukemia.
The test system of experiment [4] is MDA-MB-231 breast.
The test system of experiment [5] is ACHN renal.
In experiment [6] the test system is A549 NSCLC.
The test system of experiment [7] is T-47D breast.
Experiment [8] has as its system RPMI-8226 leukemia.
Experiment [9] concerns OVCAR-4 ovarian.
Experiment [10] concerns HOP-92 NSCLC.

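All cell lines were grown in 96-well plates and treated with compound for 48 hours. GI50 = concentration required for 50% inhibition of growth. TGI: total growth inhibition.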

In general, GI50 refers to the concentration giving 50% growth inhibition. Broadly, the TGI is the concentration at which net growth stops. A low value points to greater sensitivity of the cells. `Cc1cc(Cl)cc(OCCn2cc(F)cn2)c1-c1nc(N)nc2c1CN(C(=O)NCC(C)(F)F)C2`: the GI50 in experiment [1] is 0.0852 µM; in experiment [2], 0.261 µM; in experiment [3], 0.112 µM; in [4], 0.257 µM; in [5], 0.184 µM; in experiment [6] it was 0.116 µM. For the same compound, the GI50 in [7] is 0.235 µM; in [9] it was > 100 µM; in experiment [10], 0.192 µM. The TGI in [1] was 0.552 µM; in [2], > 100 µM; in experiment [3], > 100 µM; in experiment [4], > 100 µM; in experiment [5] it was > 100 µM; in experiment [6], > 100 µM. For the same compound, the TGI in experiment [7] was > 100 µM; in experiment [8], > 100 µM; in experiment [9], > 100 µM; in experiment [10] it was 0.728 µM.
Regarding `Cn1cc(C2=C(c3ccc(N)cc3)C(=O)NC2=O)c2ccccc21`, the GI50 in [1] was 9.88 µM; in experiment [2], 3.63 µM; in experiment [3], 9.3 µM; in experiment [4], > 23 µM; in experiment [5] it was 13.4 µM; in experiment [6] it was 18.4 µM. In addition, the GI50 in experiment [7] was > 24 µM; in [8], > 23.5 µM; in [9], > 25 µM; in experiment [10], > 25 µM. For the same compound, the TGI in experiment [1] was > 25 µM; in [2] it was 12 µM; in [3] it was > 25 µM; in [4], > 25 µM; in [5], > 25 µM; in experiment [6], > 25 µM. Also, the TGI in experiment [7], in [8], in experiment [9] and in experiment [10] was > 25 µM each time.
Consider `O=C(Nc1ccc(Br)cc1F)c1cc(F)ccc1O`, for which the GI50 was 0.405 µM in [1]; 0.172 µM in [2]; 1.86 µM in experiment [3]; 0.41 µM in [4]; 0.499 µM in experiment [5]; 1.69 µM in [6]. Besides, the GI50 in experiment [7] is 0.511 µM; in experiment [8] it was 0.296 µM; in experiment [9], 0.612 µM; in experiment [10], 0.192 µM. For the same compound, the TGI is 2.91 µM in [1]; 0.667 µM in experiment [2]; 6.4 µM in [3]; 4 µM in experiment [4]; 11.3 µM in [5]; > 100 µM in experiment [6]. Also, the TGI in experiment [7] is 5.59 µM; in experiment [8], 1.36 µM; in experiment [9], > 27.8 µM; in experiment [10] it was 0.566 µM.
For the compound `CCN1CCN(C(=O)[C@@]2(C)CC[C@]3(C)CC[C@]4(C)C(=CC(=O)[C@@H]5[C@@]6(C)CC[C@H](OC7C[C@@H](O)[C@@H](O)C(C)O7)C(C)(C)[C@@H]6CC[C@]54C)[C@@H]3C2)CC1` (some centres undefined), the GI50 in experiment [1] was 1.01 µM; in experiment [2], 8.96 µM; in experiment [3], 1.18 µM; in experiment [4], 1.13 µM; in experiment [5], 0.91 µM; in experiment [6], 1.76 µM. For the same compound, the GI50 is 9.57 µM in [7], 1.09 µM in experiment [8], 1.27 µM in experiment [9] and 5.25 µM in experiment [10]. Besides, the TGI came out at 2 µM in experiment [1]; 17 µM in experiment [2]; 3 µM in [3]; 2.59 µM in experiment [4]; 1.69 µM in experiment [5]; 8.94 µM in [6]. The TGI worked out at 23.1 µM in experiment [7], 2.52 µM in [8], 3.08 µM in experiment [9] and 12.5 µM in experiment [10].
In the case of `C/C=C(\C)C(=O)O[C@H]1C=CC(=O)O[C@H]1CCC(=O)[C@H](C)O`, the GI50 in experiment [1] was 11.8 µM; in experiment [2], 24.1 µM; in experiment [3] it was 17.6 µM; in [4] it was 16.8 µM; in experiment [5] it was 11 µM; in [6], 20.9 µM. Moreover, the GI50 in experiment [7] is 10.4 µM; in experiment [8], 8.88 µM; in experiment [9], 11.9 µM; in [10], 14.3 µM. Besides, the TGI is 27.4 µM in experiment [1]; 56.1 µM in experiment [2]; 41.8 µM in experiment [3]; 32.4 µM in [4]; 23.4 µM in experiment [5]; 46.7 µM in [6]. For the same compound, the TGI in [7] is 32.3 µM; in experiment [8] it was 34 µM; in [9], 25.4 µM; in experiment [10], 28.3 µM.
Turning to `N=C(N)C1CN(CCc2c[nH]c3ccccc23)C(=O)NC1=O` (centres undefined), the TGI in experiment [1], in experiment [2], in experiment [3], in experiment [4], in experiment [5] and in [6] was > 100 µM in each case. For the same compound, the TGI in experiment [7], in [8], in experiment [9] and in experiment [10] was > 100 µM each time.
For `Cc1ccc(SC2c3ccc(C)cc3Oc3nc(N)c(C#N)c(N)c32)cc1` (centres undefined), the GI50 was 1.59 µM in experiment [1]; 2.72 µM in experiment [2]; 2.27 µM in experiment [3]; 1.67 µM in [4]; 1.63 µM in experiment [5]; 4.9 µM in [6]. Also, the GI50 was 1.8 µM in experiment [7], 2.15 µM in experiment [8], 1.8 µM in experiment [9] and 1.45 µM in experiment [10]. The TGI amounted to 3.14 µM in [1]; 7.33 µM in experiment [2]; 6.09 µM in experiment [3]; 3.29 µM in [4]; 2.99 µM in experiment [5]; 17.3 µM in [6]. In addition, the TGI is 5.01 µM in experiment [7], 5.12 µM in experiment [8], 3.29 µM in experiment [9] and 3.23 µM in experiment [10].
Turning to `CC1(C)S[C@@H]2[C@H](NC(=O)C3(N)CCCCC3)C(=O)N2[C@H]1C(=O)O`, the TGI in experiment [1], in [2], in experiment [3], in [4], in experiment [5] and in [6] was > 100 µM each time. Moreover, the concentration for total growth inhibition (TGI) in [7], in [8], in experiment [9] and in experiment [10] was > 100 µM in each case.

The values above are taken from PubChem BioAssay (NCI).
